The text below walks through data of patent publication US9221792B2, “N-(4-(azetidine-1-carbonyl) phenyl)-(hetero-) arylsulfonamide derivatives as pyruvate kinase M2 (PMK2) modulators” (AGIOS PHARMACEUTICALS, INC, priority 2010, dated 2015).

Chain of PKM2 (P14618 whole entry): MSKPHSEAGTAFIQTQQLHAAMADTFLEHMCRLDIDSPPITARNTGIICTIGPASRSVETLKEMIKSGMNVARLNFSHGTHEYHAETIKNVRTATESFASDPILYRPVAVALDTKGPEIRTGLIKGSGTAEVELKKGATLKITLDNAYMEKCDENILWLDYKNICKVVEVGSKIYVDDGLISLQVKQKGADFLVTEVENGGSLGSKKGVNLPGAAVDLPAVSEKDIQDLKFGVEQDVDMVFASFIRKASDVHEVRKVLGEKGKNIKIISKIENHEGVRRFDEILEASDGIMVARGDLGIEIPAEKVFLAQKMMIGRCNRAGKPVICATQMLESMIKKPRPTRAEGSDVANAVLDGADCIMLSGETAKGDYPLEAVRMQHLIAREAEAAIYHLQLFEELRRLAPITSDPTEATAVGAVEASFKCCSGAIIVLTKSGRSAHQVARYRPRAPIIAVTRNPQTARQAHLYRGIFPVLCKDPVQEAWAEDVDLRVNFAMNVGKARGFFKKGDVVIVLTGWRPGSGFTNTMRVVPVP

This experiment concerns the target PKM2 (Homo sapiens, UniProt P14618). Description: PKM2 Assay (activation, LDH-coupled NADH absorbance at 340 nm). The note with it: activation of PKM2; PKM2 50 ng/well, ADP 0.7 mM, PEP 0.15 mM, room temperature (25° C.); read-out: AC50. The experiment is classed as biochemical. The method, then: • PKM2 stock enzyme solution was diluted in Reaction Buffer • 2 μL of compound was added into each well first, and then 180 μL of the Reaction Mix was added. • Reaction mixture with compound (without ADP) were incubated for 30 minutes at 4° C. • Plates were re-equilibrated to room temperature prior to adding 20 μL ADP to initiate the reaction. • Reaction progress was measured as changes in absorbance at 340 nm wavelength at room temperature (25° C.) Reaction Mix: PKM2 (50 ng/well), ADP (0.7 mM), PEP (0.15 mM), NADH (180 μM), LDH (2 units) in Reaction Buffer Reaction Buffer: 100 mM KCl, 50 mM Tris pH 7.5, 5 mM MgCl2, 1 mM DTT, 0.03% BSA.
Certain compounds of Formula I were tested in the above-described assay. A compound described herein may be tested for its ability to activate PKM2. The activation activity of these compounds is represented as an AC50 in Table 2 and throughout the application. […] “B” refers to an activator of PKM2 with an EC50 between 100 nM and 1 μM. “C” refers to an activator of PKM2 with an EC50 between 1 μM and 10 μM. “D” refers to an activator of PKM2 with an EC50 greater than 10 μM. “NA” refers to data that is not available.
One may read the AC50 as the concentration at which the activity in the assay is half-maximal. With `COc1cc(C(=O)N2CC(OC(=O)Nc3ccccn3)C2)ccc1NS(=O)(=O)c1cccc2cccnc12` [Compound 156, 1-(3-Methoxy-4-(quinoline-8-sulfonamido)benzoyl)azetidin-3-yl pyridin-2-ylcarbamate], the AC50 lay in the range of 0.1 to 1 µM.
Turning to `COc1ccccc1N(C)C1CN(C(=O)c2ccc(S(=O)(=O)Nc3cccc4cccnc34)cc2)C1` [Compound 128], the AC50 was over 10 µM.
For the molecule `O=C(c1ccc(NS(=O)(=O)c2cccc3cccnc23)cc1)N1CC(Oc2ccccc2)C1` [Compound 100], the AC50 fell in the range of 0.1 to 1 µM.
Take `O=C(Nc1ccccn1)OC1CN(C(=O)c2ccc(NS(=O)(=O)c3cccc4cccnc34)c(F)c2)C1` [Compound 162, 1-(3-Fluoro-4-(quinoline-8-sulfonamido)benzoyl)azetidin-3-yl pyridin-2-ylcarbamate]: the AC50 is over 10 µM.
For the molecule `Cc1cc(C(=O)N2CC(OC(=O)Nc3ccccn3)C2)ccc1NS(=O)(=O)c1cccc2cccnc12` [Compound 155, 1-(3-Methyl-4-(quinoline-8-sulfonamido)benzoyl)azetidin-3-yl pyridin-2-ylcarbamate], the concentration at half-maximal activity (AC50) is 0.1 to 1 µM.
Take `COC1(Cc2ccccc2)CN(C(=O)c2ccc(NS(=O)(=O)c3cccc4cccnc34)cc2)C1` [Compound 105, N-(4-(3-benzyl-3-methoxyazetidine-1-carbonyl)phenyl)quinoline-8-sulfonamide]: the AC50 was in the range of 0.1 to 1 µM.
Turning to `O=C(NC1CN(C(=O)c2ccc(S(=O)(=O)Nc3cccc4cccnc34)cc2)C1)c1ccccn1` [Compound 104], the AC50 was over 10 µM.
Then `O=C(c1ccc(NS(=O)(=O)c2cccc3cccnc23)cc1)N1CC(=Cc2ccccc2)C1` [Compound 165], with 0.1 to 1 µM; and `O=C(NC1CN(C(=O)c2ccc(NS(=O)(=O)c3cccc4cccnc34)c(F)c2)C1)c1ccccn1` [Compound 121, N-(1-(3-Fluoro-4-(quinoline-8-sulfonamido)benzoyl)azetidin-3-yl)picolinamide], with 1 to 10 µM.
Under `C=CCNC(=O)NC1CN(C(=O)c2ccc(NS(=O)(=O)c3cccc4cccnc34)cc2)C1` [Compound 139, N-(4-(3-(3-Allylureido)azetidine-1-carbonyl)phenyl)quinoline-8-sulfonamide] stands 1 to 10 µM; under `O=C(c1ccc(S(=O)(=O)Nc2cccc3cccnc23)cc1)N1CC(OCc2ccccc2)C1` [Compound 119], 1 to 10 µM; under `Cc1cc(C(=O)N2CC(N(C)Cc3ccccc3)C2)ccc1NS(=O)(=O)c1cccc2cccnc12` [Compound 109, N-(4-(3-(benzyl(methyl)amino)azetidine-1-carbonyl)-2-methylphenyl)quinoline-8-sulfonamide], 0.1 to 1 µM.
For the molecule `CC(C)NC(=O)NC1CN(C(=O)c2ccc(NS(=O)(=O)c3cccc4cccnc34)cc2)C1` [Compound 163], the AC50 lay within 1 to 10 µM.
Then `CC1(O)CN(C(=O)c2ccc(NS(=O)(=O)c3cccc4cccnc34)c(F)c2)C1` [Compound 125], with over 10 µM; and `O=C(c1ccc(NS(=O)(=O)c2cccc3cccnc23)cc1)N1CC(NCc2ccccc2)C1` [Compound 147, N-(4-(3-(benzylamino)azetidine-1-carbonyl)phenyl)quinoline-8-sulfonamide], with 0.1 to 1 µM.
As for `Cc1cc(C(=O)N2CC(Oc3ccccc3)C2)ccc1NS(=O)(=O)c1cccc2cccnc12` [Compound 106], the AC50 is under 0.1 µM.
Under `O=C(OC1CN(C(=O)c2ccc(NS(=O)(=O)c3cccc4cccnc34)c(F)c2)C1)c1ccccn1` [Compound 124, 1-(3-Fluoro-4-(quinoline-8-sulfonamido)benzoyl)azetidin-3-yl picolinate] stands 1 to 10 µM.
